Test results reported in PubChem BioAssay AID256 (DTP/NCI, 2004).
Several values for one entry are separate records, joined by “and”; a condition that tells them apart may be missing. Equal entries are not always repeated. Toxic doses and inconclusive results are not listed. How the source made its calls: active means survival T/C of 150% or more; inactive means T/C below 125% in these data.

Tested on: CD2F1 mice, L1210 leukemia ip, survival T/C
Experiment: NCI In Vivo Anticancer Drug Screen. Data for tumor model L1210 Leukemia (intraperitoneal) in CD2F1 (CDF1) mice
Conditions: endpoint: mean survival time, higher = longer survival
Procedure, shortened: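 Activity against a transplanted murine tumor was judged by comparing the compound group with a vehicle group. The outcome in the treated animals was divided by that in the controls.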

[1] = dose: 100.0 mg/kg/injection, schedule: Q04DX003 (ip), vehicle: Klucel (hydroxypropylcellulose) (HPC)
[2] = dose: 200.0 mg/kg/injection, schedule: Q04DX003 (ip), vehicle: Klucel (hydroxypropylcellulose) (HPC)
[3] = dose: 400.0 mg/kg/injection, schedule: Q04DX003 (ip), vehicle: Klucel (hydroxypropylcellulose) (HPC)
[4] = dose: 100.0 mg/kg/injection, schedule: Q01DX009 (ip), vehicle: saline with Tween-80
[5] = dose: 200.0 mg/kg/injection, schedule: Q01DX009 (ip), vehicle: saline with Tween-80
[6] = dose: 400.0 mg/kg/injection, schedule: Q01DX009 (ip), vehicle: saline with Tween-80
[7] = dose: 100.0 mg/kg/injection, schedule: Q04DX003 (ip), vehicle: saline
[8] = dose: 200.0 mg/kg/injection, schedule: Q04DX003 (ip), vehicle: saline
[9] = dose: 50.0 mg/kg/injection, schedule: Q01DX009 (ip), vehicle: saline with Tween-80
[10] = dose: 100.0 mg/kg/injection, schedule: Q04DX003 (ip), vehicle: saline with Tween-80
[11] = dose: 200.0 mg/kg/injection, schedule: Q04DX003 (ip), vehicle: saline with Tween-80
[12] = dose: 400.0 mg/kg/injection, schedule: Q04DX003 (ip), vehicle: saline with Tween-80
[13] = dose: 25.0 mg/kg/injection, schedule: Q04DX003 (ip), vehicle: saline with Tween-80
[14] = dose: 50.0 mg/kg/injection, schedule: Q04DX003 (ip), vehicle: saline with Tween-80

Measured: T/C

OCC#CCOCC(O)CCl (stereo not given)
inactive: dose: 25.0 mg/kg/injection, schedule: Q01DX009 (ip), vehicle: water 107 % of control | dose: 50.0 mg/kg/injection, schedule: Q01DX009 (ip), vehicle: water 98 % of control | dose: 100.0 mg/kg/injection, schedule: Q01DX009 (ip), vehicle: water 104 % of control | dose: 200.0 mg/kg/injection, schedule: Q01DX009 (ip), vehicle: water 97 % of control

CN(C)C=NCCc1ccccc1
inactive: dose: 50.0 mg/kg/injection, schedule: Q01DX001 (ip), vehicle: saline 97 % of control

C#CCOC(=O)NC1CCCCC1
inactive: [1] 104 % of control | [2] 105 % of control | [3] 102 % of control

O=P(OCc1ccccc1)(N(CCCl)CCCl)N1CCCC1 (stereo not given)
inactive: dose: 128.0 mg/kg/injection, schedule: Q01DX Z (ip), vehicle: saline 101 % of control

COC(=O)C(Br)C(OC)c1ccc(C)cc1 (stereo not given)
inactive: [4] 94 % of control | dose: 100.0 mg/kg/injection, schedule: Q04DX003 (ip), vehicle: saline sonified 95 % of control | [5] 96 % of control | dose: 200.0 mg/kg/injection, schedule: Q04DX003 (ip), vehicle: saline sonified 91 % of control | [6] 90 % of control | dose: 400.0 mg/kg/injection, schedule: Q04DX003 (ip), vehicle: saline sonified 101 % of control

COC(=O)C1=CCN(C)CC1
inactive: [7] 97 % of control | [8] 96 % of control | dose: 400.0 mg/kg/injection, schedule: Q04DX003 (ip), vehicle: saline 90 % of control

O=c1cccc[nH]1 (tested in a mixture with another compound)
inactive: [9] 108 % of control | [7] 97 % of control | [8] 97 % of control

CC(=O)n1c2ccccc2c2ccccc21
inactive: [9] 106 % of control | [4] 109 % of control | [5] 106 % of control

CC(C)(C)C(=O)/C=C/c1ccccc1
inactive: dose: 50.0 mg/kg/injection, schedule: Q04DX003 (ip), vehicle: Klucel (hydroxypropylcellulose) (HPC) 96 % of control | [1] 98 % of control and 102 % of control | [2] 98 % of control and 110 % of control | [3] 106 % of control

CC(C)CC1(C(C)C)C(=O)NC(=S)NC1=O
inactive: dose: 5.0 mg/kg/injection, schedule: Q01DX001 (ip), vehicle: saline 102 % of control | dose: 10.0 mg/kg/injection, schedule: Q01DX001 (ip), vehicle: saline 96 % of control | dose: 20.0 mg/kg/injection, schedule: Q01DX001 (ip), vehicle: saline 98 % of control | dose: 40.0 mg/kg/injection, schedule: Q01DX001 (ip), vehicle: saline 101 % of control

CCOC(=O)C(N=O)C(=O)c1ccccc1 (stereo not given)
inactive: dose: 100.0 mg/kg/injection, schedule: Q01DX009 (ip), vehicle: saline sonified 95 % of control | [10] 96 % of control | dose: 200.0 mg/kg/injection, schedule: Q01DX009 (ip), vehicle: saline sonified 101 % of control | [11] 95 % of control | dose: 400.0 mg/kg/injection, schedule: Q01DX009 (ip), vehicle: saline sonified 92 % of control | [12] 86 % of control

C1CCCC(NC2=NCCO2)CC1
inactive: dose: 6.25 mg/kg/injection, schedule: Q04DX003 (ip), vehicle: saline with Tween-80 98 % of control | dose: 12.5 mg/kg/injection, schedule: Q04DX003 (ip), vehicle: saline with Tween-80 97 % of control | [13] 98 % of control

Cc1ccc(C(=O)NN)cc1
inactive: [13] 96 % of control | [14] 96 % of control | [10] 95 % of control and 107 % of control

ClC1(Cl)C2(Cl)C3(Cl)C4(Cl)C(Cl)(Cl)C5(Cl)C3(Cl)C1(Cl)C5(Cl)C24Cl (stereo not given)
inactive: [4] 97 % of control | [10] 103 % of control | [5] 102 % of control | [11] 94 % of control | [6] 100 % of control | [12] 96 % of control

C=C[CH2][Sn]([c]1ccccc1)([c]1ccccc1)[c]1ccccc1
inactive: [14] 87 % of control | [10] 91 % of control

COc1ccc(NC(=O)Nc2cc(C(F)(F)F)ccc2Cl)cc1
inactive: [4] 90 % of control | [5] 98 % of control | [6] 86 % of control

COc1c(OC(C)=O)ccc2c1C=CCCC2=O
inactive: [9] 96 % of control | [4] 100 % of control | [5] 92 % of control

Cc1cc(Cl)ccc1NC(=O)Nc1c(Oc2ccc(Cl)cc2)ccc(Cl)c1S(=O)(=O)O
inactive: dose: 100.0 mg/kg/injection, schedule: Q01DX001 (ip), vehicle: saline 96 % of control | dose: 200.0 mg/kg/injection, schedule: Q01DX001 (ip), vehicle: saline 98 % of control

ClC1CC2C=CC1C2 (stereo not given)
inactive: dose: 100.0 mg/kg/injection, schedule: Q01DX001 (ip), vehicle: saline with Tween-80 103 % of control | dose: 200.0 mg/kg/injection, schedule: Q01DX001 (ip), vehicle: saline with Tween-80 100 % of control | dose: 400.0 mg/kg/injection, schedule: Q01DX001 (ip), vehicle: saline with Tween-80 102 % of control

O=C(CC(O)(C(F)(F)F)C(F)(F)F)C(Cl)C(O)(C(F)(F)F)C(F)(F)F (stereo not given)
inactive: dose: 100.0 mg/kg/injection, schedule: Q01DX001 (ip), vehicle: other 102 % of control

CCCCCCCCCCCCCCCC[n+]1ccccc1
inactive: dose: 0.78 mg/kg/injection, schedule: Q01DX009 (ip), vehicle: saline 112 % of control | dose: 1.56 mg/kg/injection, schedule: Q01DX009 (ip), vehicle: saline 120 % of control | dose: 3.13 mg/kg/injection, schedule: Q01DX009 (ip), vehicle: saline 120 % of control

ClSc1c(Cl)c(Cl)c(Cl)c(Cl)c1Cl
inactive: [10] 95 % of control | [11] 101 % of control | [12] 95 % of control

O=C(OCC1OC(n2nc(N3CCOCC3)c(=O)[nH]c2=O)C(OC(=O)c2ccccc2)C1OC(=O)c1ccccc1)c1ccccc1 (stereo not given)
inactive: dose: 12.5 mg/kg/injection, schedule: Q01DX005 (ip), vehicle: distilled water + Tween-80 98 % of control | dose: 25.0 mg/kg/injection, schedule: Q01DX005 (ip), vehicle: distilled water + Tween-80 103 % of control | dose: 50.0 mg/kg/injection, schedule: Q01DX005 (ip), vehicle: distilled water + Tween-80 92 % of control

COc1ccccc1/C=N/NC(=O)c1ccccc1
inactive: dose: 100.0 mg/kg/injection, schedule: Q01DX009 (ip), vehicle: Klucel (hydroxypropylcellulose) (HPC) 102 % of control | [1] 91 % of control | dose: 200.0 mg/kg/injection, schedule: Q01DX009 (ip), vehicle: Klucel (hydroxypropylcellulose) (HPC) 96 % of control | [2] 96 % of control | dose: 400.0 mg/kg/injection, schedule: Q01DX009 (ip), vehicle: Klucel (hydroxypropylcellulose) (HPC) 108 % of control | [3] 94 % of control

CCC(CO)C(C)C (stereo not given)
inactive: [10] 97 % of control | [11] 100 % of control

O=C(O)/C(=C\c1ccc(Br)cc1)c1ccc(C(F)(F)F)cc1[N+](=O)[O-]
inactive: dose: 75.0 mg/kg/injection, schedule: Q04DX003 (ip), vehicle: saline 89 % of control | dose: 150.0 mg/kg/injection, schedule: Q04DX003 (ip), vehicle: saline 101 % of control | dose: 300.0 mg/kg/injection, schedule: Q04DX003 (ip), vehicle: saline 100 % of control

S=C(NCCSSCCNC(=S)Nc1ccccc1)Nc1ccccc1
inactive: [10] 98 % of control | [11] 94 % of control | [12] 86 % of control

CCCCN(CCCC)C1=C(Cl)C(=O)c2ccccc2C1=O
inactive: [13] 98 % of control | [14] 98 % of control | [10] 91 % of control
